{"source": "patent US20210292340A1", "about": "“CELL NECROSIS INHIBITOR, PREPARATION METHOD THEREFOR AND USE THEREOF” (SHANGHAI INSTITUTE OF ORGANIC CHEMISTRY, CHINESE ACADEMY OF …, priority 2018, published 2021)", "tested_on": "Jurkat (FADD−/−) cells", "assay": "Inhibition of TNF-induced programmed Jurkat (FADD−/−) cell necrosis (Cell Titer-Glo)", "type": "cell-based, human", "details": "Homo sapiens, Jurkat, 20 h, TNF 10 ng/mL, intracellular ATP level, read-out: Cellular IC50 (M) Jurkat (FADD−/−)", "protocol": "Two replicate wells were set for each concentration of each compound.\nJurkat (FADD^−/−) cells (human-derived peripheral blood leukemia T cell line, with FADD gene knocked out) were cultured in vitro. After growing to logarithmic growth phase, the cells were harvested, and centrifuged at 1000 rpm for 5 min. The supernatant was discarded, and the cells were resuspended in fresh medium and adjusted to a cell density of 5×10^5/mL. The cell suspension was added to the culture plate containing the drug (40 μL per well). In the treatment groups, 10 μL of TNF (tumor necrosis factor, final concentration 10 ng/mL) diluted with the cell culture medium was added to each well, and incubated for 20 h in a cell incubator (37° C., 5% CO2). Subsequently, 50 μL of Cell Titer-Glo solution was added to each well and incubated at room temperature for 10 min. Then, the luminescence was detected on BioTek plate reader to measure the intracellular ATP level. The effect of the test compounds in inhibiting TNF-induced cell necrosis was calculated from the full-activity well and background well (with the untreated DMSO control well as 100% cell viability), and the half inhibitory concentration (IC50) of the compound was calculated by Graphpad Prism statistical software.", "data": [{"smiles": "Cc1ccc(Cc2cc(C(=O)N[C@H]3CSc4cc5[nH]ccc5cc4N(C)C3=O)nn2C)cc1", "note": "[RIP1-045]", "values": [{"measurement": "IC50", "value": "> 2e-06", "unit": "M"}]}, {"smiles": "Cc1ccc(Cc2cc(C(=O)N[C@H]3CSc4cc5c(ccn5C)cc4N(C)C3=O)n(C)n2)cc1", "note": "[RIP1-057]", "values": [{"measurement": "IC50", "value": "> 2e-06", "unit": "M"}]}, {"smiles": "CN1C(=O)[C@@H](NC(=O)c2n[nH]c(Cc3ccccc3)n2)CSc2cc3[nH]ccc3cc21", "note": "[RIP1-001]", "values": [{"measurement": "IC50", "value": "1.38e-09", "unit": "M"}]}, {"smiles": "Cc1ccc(Cc2cc(C(=O)N[C@H]3COc4cc5occc5cc4N(C)C3=O)nn2C)cc1", "note": "[RIP1-124]", "values": [{"measurement": "IC50", "value": "2.09e-08", "unit": "M"}]}, {"smiles": "CN1C(=O)[C@@H](NC(=O)c2cnc(Cc3ccccc3)[nH]2)CSc2cc3c(ccn3C)cc21", "note": "[RIP1-050]", "values": [{"measurement": "IC50", "value": "4.92e-07", "unit": "M"}]}, {"smiles": "CN1C(=O)[C@@H](NC(=O)c2cc(Oc3ccccc3)ccn2)COc2cc3ncoc3cc21", "note": "[RIP1-186]", "values": [{"measurement": "IC50", "value": "7.52e-10", "unit": "M"}]}, {"smiles": "Cc1ccc(Cc2cc(C(=O)N[C@H]3COc4cc5[nH]c(C)nc5cc4N(C)C3=O)n(C)n2)cc1", "note": "[RIP1-073]", "values": [{"measurement": "IC50", "value": "> 2e-06", "unit": "M"}]}, {"smiles": "COc1ncnc2cc3c(cc12)N(C)C(=O)[C@@H](NC(=O)c1n[nH]c(Cc2c(F)cc(F)cc2F)n1)CO3", "note": "[RIP1-157]", "values": [{"measurement": "IC50", "value": "2.49e-07", "unit": "M"}]}, {"smiles": "CN1C(=O)[C@@H](NC(=O)c2cc(Cc3ccccc3)on2)CSc2cc3[nH]ccc3cc21", "note": "[RIP1-003]", "values": [{"measurement": "IC50", "value": "6.91e-10", "unit": "M"}]}, {"smiles": "COc1ncnc2cc3c(cc12)N(C)C(=O)[C@@H](NC(=O)c1n[nH]c(Cc2ccccc2F)n1)CO3", "note": "[RIP1-160]", "values": [{"measurement": "IC50", "value": "2.2e-09", "unit": "M"}]}, {"smiles": "CN1C(=O)[C@@H](NC(=O)c2n[nH]c(Cc3c(F)cc(F)cc3F)n2)COc2cc3occc3cc21", "note": "[RIP1-173]", "values": [{"measurement": "IC50", "value": "7e-08", "unit": "M"}]}, {"smiles": "CN1C(=O)[C@@H](NC(=O)c2cc(Oc3ccccc3)ccn2)COc2ccc3cnccc3c21", "note": "[RIP1-178]", "values": [{"measurement": "IC50", "value": "3.23e-10", "unit": "M"}]}, {"smiles": "CN1C(=O)[C@@H](NC(=O)c2cn(Cc3ccccc3)cn2)CSc2cc3[nH]nc(Cl)c3cc21", "note": "[RIP1-028]", "values": [{"measurement": "IC50", "value": "7e-11", "unit": "M"}]}, {"smiles": "CN1C(=O)[C@@H](NC(=O)c2cn(Cc3ccccc3)nn2)COc2cc3[nH]c(C(F)(F)F)nc3cc21", "note": "[RIP1-078]", "values": [{"measurement": "IC50", "value": "3.11e-08", "unit": "M"}]}, {"smiles": "CN1C(=O)[C@@H](NC(=O)c2ncn(Cc3ccccc3)n2)CSc2cc3[nH]ccc3cc21", "note": "[RIP1-008]", "values": [{"measurement": "IC50", "value": "2.4e-10", "unit": "M"}]}, {"smiles": "CN1C(=O)[C@H](NC(=O)c2cc(Cc3ccccc3)on2)COc2cc3c(ccn3C)cc21", "note": "[RIP1-080]", "values": [{"measurement": "IC50", "value": "> 2e-06", "unit": "M"}]}, {"smiles": "CN1C(=O)[C@@H](NC(=O)c2cc(Oc3cccnc3)ccn2)COc2cc3nccnc3cc21", "note": "[RIP1-214]", "values": [{"measurement": "IC50", "value": "2.41e-08", "unit": "M"}]}, {"smiles": "Cc1nc2cc3c(cc2[nH]1)OC[C@H](NC(=O)c1cnn(Cc2ccccc2)c1)C(=O)N3C", "note": "[RIP1-062]", "values": [{"measurement": "IC50", "value": "> 2e-06", "unit": "M"}]}, {"smiles": "CN1C(=O)[C@@H](NC(=O)c2n[nH]c(Cc3ccccc3)n2)COc2cc3ncnc(O)c3cc21", "note": "[RIP1-187]", "values": [{"measurement": "IC50", "value": "2.59e-07", "unit": "M"}]}, {"smiles": "Cc1ccc(Cc2cc(C(=O)N[C@H]3COc4cc5[nH]c(C)nc5cc4N(C)C3=O)nn2C)cc1", "note": "[RIP1-072]", "values": [{"measurement": "IC50", "value": "9.65e-08", "unit": "M"}]}, {"smiles": "CN1C(=O)[C@@H](NC(=O)c2cncn2Cc2ccccc2)CSc2cc3[nH]ccc3cc21", "note": "[RIP1-005]", "values": [{"measurement": "IC50", "value": "> 2e-06", "unit": "M"}]}, {"smiles": "CN1C(=O)[C@@H](NC(=O)c2ncn(Cc3ccccc3)n2)CSc2ccc3cnccc3c21", "note": "[RIP1-103]", "values": [{"measurement": "IC50", "value": "6.75e-09", "unit": "M"}]}, {"smiles": "CN1C(=O)[C@@H](NC(=O)c2ncn(Cc3ccccc3)n2)CSc2cc3c(ccn3Cc3ccccc3)cc21", "note": "[RIP1-086]", "values": [{"measurement": "IC50", "value": "> 2e-06", "unit": "M"}]}, {"smiles": "CN1C(=O)[C@@H](NC(=O)c2ncn(Cc3ccccc3)n2)CSc2ccc3ncccc3c21", "note": "[RIP1-093]", "values": [{"measurement": "IC50", "value": "1.15e-09", "unit": "M"}]}, {"smiles": "CN1C(=O)[C@@H](NC(=O)c2cn(Cc3ccccc3)cn2)CSc2cc3[nH]ncc3cc21", "note": "[RIP1-016]", "values": [{"measurement": "IC50", "value": "2.3e-10", "unit": "M"}]}, {"smiles": "CN1C(=O)[C@@H](NC(=O)c2n[nH]c(Cc3ccc(F)cc3)n2)COc2cc3[nH]nnc3cc21", "note": "[RIP1-167]", "values": [{"measurement": "IC50", "value": "1.6e-06", "unit": "M"}]}, {"smiles": "CN1C(=O)[C@H](NC(=O)c2nnc(Cc3ccccc3)o2)COc2cc3c(ccn3C)cc21", "note": "[RIP1-081]", "values": [{"measurement": "IC50", "value": "> 2e-06", "unit": "M"}]}, {"smiles": "CN1C(=O)[C@@H](NC(=O)c2cc(Oc3ccccc3)ccn2)COc2cc3nccnc3cc21", "note": "[RIP1-177]", "values": [{"measurement": "IC50", "value": "2.03e-09", "unit": "M"}]}, {"smiles": "CN1C(=O)[C@@H](NC(=O)c2cnnn2Cc2ccccc2)CSc2cc3[nH]ccc3cc21", "note": "[RIP1-051]", "values": [{"measurement": "IC50", "value": "> 2e-06", "unit": "M"}]}, {"smiles": "CN1C(=O)[C@@H](NC(=O)c2cc(Oc3ccccc3F)ccn2)COc2ccc3ncccc3c21", "note": "[RIP1-203]", "values": [{"measurement": "IC50", "value": "2.33e-09", "unit": "M"}]}, {"smiles": "CN1C(=O)[C@@H](NC(=O)c2n[nH]c(Cc3ccccc3)n2)COc2ccc3cccnc3c21", "note": "[RIP1-148]", "values": [{"measurement": "IC50", "value": "1.07e-08", "unit": "M"}]}]}
